Tests used:
[1] = cited from earlier work
[2] = kinetics of dihydrogen release on dissolution of a hydride composition in 30 mL PBS solution, according to pH; type: physicochemical; conditions: substantially 13 mg hydride in 30 mL PBS
[3] = pH of the PBS solution following dissolution of the hydride; type: physicochemical; conditions: after dissolution

SMILES	saturation limit concentration in water [1] [ppm]	required time for reaching the release of about 1 ppm of dihydrogen after immersion ([2]; pH 5.8)	required time for reaching the release of about 1 ppm of dihydrogen after immersion ([2]; pH 7.4) [min]	required time for reaching the release of about 1 ppm of dihydrogen after immersion ([2]; pH 8.45) [min]	pH of the PBS solution following the dissolution of the hydride [3]
[HH] [dihydrogen]	1.57	–	–	–	–
[H-].[H-].[Mg+2] [magnesium hydride]	–	about 30 seconds	~4	~5	10

Reference: patent US20220175825A1, “COMPOSITION AND ASSOCIATED DELIVERY DEVICE FOR HYDROGEN THERAPY” (UNIVERSITE GRENOBLE ALPES, priority 2019, published 2022)
